# Test results: US12209102B2, “Heterocyclic compounds and uses thereof” (Kumquat Biosciences Inc., priority 2022, dated 2025)
# What was measured:
# K-Ras G12V = biological target: T1, K-Ras G12V (Homo sapiens, UniProt P01116, G12V); test: HTRF resonance energy transfer assay, K-Ras G12V / SOS1 interaction; type: biochemical; conditions: HTRF assay of Example 5; read-out: IC50 against K-Ras G12V
# T1 construct: made in house; host or cells: E. coli BL21 (DE3)
# Summary of the method: (§1)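 Compounds, tested in duplicate at 10 μM down to 0.01 μM, were read after about 10 min or more by HTRF as the 665/620 nm emission ratio (337 nm excitation) to derive IC50. This ratio reports FRET between an anti-GST-Eu donor on GST-K-Ras (wild-type or mutant) and an anti-6His-XL665 acceptor on His-hSOS1. Buffer: ~5 mM HEPES pH 7.4, 150 mM NaCl, 1 mM DTT, 0.05% BSA, 0.0025% Igepal.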
# K-Ras G12D = biological target: T2, K-Ras G12D (Homo sapiens, UniProt P01116, G12D); test: HTRF resonance energy transfer assay, K-Ras G12D / SOS1 interaction; type: biochemical; conditions: HTRF assay of Example 5; read-out: IC50 against K-Ras G12D
# T2 construct: made in house; host or cells: E. coli BL21 (DE3)
# T2 sequence (P01116 1-188 isoform P01116-2 G12D): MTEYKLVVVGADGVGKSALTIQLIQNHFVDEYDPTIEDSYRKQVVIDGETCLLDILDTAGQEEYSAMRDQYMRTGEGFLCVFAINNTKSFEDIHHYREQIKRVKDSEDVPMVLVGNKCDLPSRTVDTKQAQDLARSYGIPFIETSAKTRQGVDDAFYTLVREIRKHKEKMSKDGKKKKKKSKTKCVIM
# Summary of the method: as §1
# SW620 cells = test: Ras cellular assay, growth of cells with K-Ras G12V mutation (CellTiter-Glo); type: cell-based; conditions: Homo sapiens, SW-620; cell growth, Example 9, G12V mutation; read-out: IC50 against SW620 cells
# Summary of the method: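 IC50 values came from a four-parameter fit of CellTiter-Glo viability, read roughly 6 days after dosing with e.g. a 10-point threefold dilution series. G12V-mutant SW620 cells (e.g. 800 per well) had been plated the previous day in RPMI-1640/10% heat-inactivated FBS, on tissue culture-treated or ultra-low attachment plates.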
# K-Ras WT = biological target: T3, K-Ras WT (Homo sapiens, UniProt P01116); test: HTRF resonance energy transfer assay, K-Ras WT / SOS1 interaction; type: biochemical; conditions: HTRF assay of Example 5; read-out: IC50 against K-Ras WT
# T3 construct: made in house; host or cells: E. coli BL21 (DE3)
# T3 sequence (P01116 1-188 isoform P01116-2): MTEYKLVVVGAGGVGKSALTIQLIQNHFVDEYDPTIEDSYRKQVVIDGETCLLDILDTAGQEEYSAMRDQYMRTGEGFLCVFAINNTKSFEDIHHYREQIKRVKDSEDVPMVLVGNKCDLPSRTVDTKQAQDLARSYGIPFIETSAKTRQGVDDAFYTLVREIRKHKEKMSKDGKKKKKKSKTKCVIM
# Summary of the method: as §1
# K-Ras G12S = biological target: T4, K-Ras G12S (Homo sapiens, UniProt P01116, G12S); test: HTRF resonance energy transfer assay, K-Ras G12S / SOS1 interaction; type: biochemical; conditions: HTRF assay of Example 5; read-out: IC50 against K-Ras G12S
# T4 construct: made in house; host or cells: E. coli BL21 (DE3)
# T4 sequence (P01116 1-188 isoform P01116-2 G12S): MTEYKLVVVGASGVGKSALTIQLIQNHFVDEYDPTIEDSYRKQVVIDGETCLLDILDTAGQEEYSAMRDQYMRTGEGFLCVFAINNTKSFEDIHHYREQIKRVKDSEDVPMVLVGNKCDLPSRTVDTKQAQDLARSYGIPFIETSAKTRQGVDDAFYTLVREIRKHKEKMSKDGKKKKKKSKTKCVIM
# Summary of the method: as §1
# GP2D cells = test: Ras cellular assay, growth of cells with K-Ras G12D mutation (CellTiter-Glo); type: cell-based; conditions: cell growth, Example 9, G12D mutation, read-out: IC50 against GP2D cells
# T1 sequence (P01116 1-188 isoform P01116-2 G12V): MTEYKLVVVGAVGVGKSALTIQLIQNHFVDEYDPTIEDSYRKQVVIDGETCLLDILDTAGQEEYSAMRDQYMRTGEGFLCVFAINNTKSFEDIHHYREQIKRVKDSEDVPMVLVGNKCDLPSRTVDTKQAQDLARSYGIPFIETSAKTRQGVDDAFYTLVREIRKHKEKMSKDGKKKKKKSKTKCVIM
SMILES,IC50 (K-Ras G12V),IC50 (K-Ras G12D),IC50 (SW620 cells),IC50 (K-Ras WT),IC50 (K-Ras G12S),IC50 (GP2D cells)
"N#Cc1c(N)sc2c(F)ccc(-c3c(Cl)c4c5c(nc(OC[C@@]67CCCN6C[C@H](F)C7)nc5c3F)N(CC(F)F)[C@@H](C(F)(F)F)CO4)c12 [Compound 672, 2-amino-4-((R)-8-chloro-4-(2,2-difluoroethyl)-10-fluoro-2-(((2R,7aS)-2-fluorotetrahydro-1H-pyrrolizin-7a(5H)-yl)methoxy)-5-(trifluoromethyl)-5,6-dihydro-4H-[1,4]oxazepino[5,6,7-de]quinazolin-9-yl)-7-fluorobenzo[b]thiophene-3-carbonitrile]",< 100 nM,< 100 nM,< 5000 nM,< 100 nM,< 100 nM,< 500 nM
"N#Cc1c(N)sc2c(F)ccc(-c3c(Cl)c4c5c(nc(OC[C@@]67CCCN6C[C@H](F)C7)nc5c3F)N(CC(F)F)[C@H](C3(C#N)CC3)CO4)c12 [Compound 722, 2-amino-4-((R)-8-chloro-5-(1-cyanocyclopropyl)-4-(2,2-difluoroethyl)-10-fluoro-2-(((2R,7aS)-2-fluorotetrahydro-1H-pyrrolizin-7a(5H)-yl)methoxy)-5,6-dihydro-4H-[1,4]oxazepino[5,6,7-de]quinazolin-9-yl)-7-fluorobenzo[b]thiophene-3-carbonitrile]",< 100 nM,< 100 nM,< 5000 nM,< 100 nM,< 100 nM,< 500 nM
"C[C@H]1C(C(F)F)Oc2c(Cl)c(-c3ccc(F)c4sc(N)c(C#N)c34)c(F)c3nc(OC[C@@]45CCCN4C[C@H](F)C5)nc(c23)N1CC(F)F (stereo partly drawn) [Compound 723, 2-amino-4-((5S)-8-chloro-4-(2,2-difluoroethyl)-6-(difluoromethyl)-10-fluoro-2-(((2R,7aS)-2-fluorotetrahydro-1H-pyrrolizin-7a(5H)-yl)methoxy)-5-methyl-5,6-dihydro-4H-[1,4]oxazepino[5,6,7-de]quinazolin-9-yl)-7-fluorobenzo[b]thiophene-3-carbonitrile]",< 100 nM,< 100 nM,< 5000 nM,< 100 nM,< 100 nM,< 500 nM
"CC(O)C1COc2c(Cl)c(-c3ccc(F)c4sc(N)c(C#N)c34)c(F)c3nc(OC[C@@]45CCCN4C[C@H](F)C5)nc(c23)N1CCN(C)C (stereo partly drawn) [Compound 745, 2-amino-4-(8-chloro-4-(2-(dimethylamino)ethyl)-10-fluoro-2-(((2R,7aS)-2-fluorotetrahydro-1H-pyrrolizin-7a(5H)-yl)methoxy)-5-(1-hydroxyethyl)-5,6-dihydro-4H-[1,4]oxazepino[5,6,7-de]quinazolin-9-yl)-7-fluorobenzo[b]thiophene-3-carbonitrile]",< 100 nM,< 100 nM,< 5000 nM,< 100 nM,< 100 nM,< 500 nM
"N#Cc1c(N)sc2c(F)ccc(-c3c(Cl)c4c5c(nc(OC[C@@]67CCCN6C[C@H](F)C7)nc5c3F)N(CC(F)F)CCO4)c12 [Compound 748, 2-amino-4-(8-chloro-4-(2,2-difluoroethyl)-10-fluoro-2-(((2R,7aS)-2-fluorotetrahydro-1H-pyrrolizin-7a(5H)-yl)methoxy)-5,6-dihydro-4H-[1,4]oxazepino[5,6,7-de]quinazolin-9-yl)-7-fluorobenzo[b]thiophene-3-carbonitrile]",< 100 nM,< 100 nM,< 5000 nM,< 100 nM,< 100 nM,< 500 nM
"C[C@H](O)[C@H]1COc2c(Cl)c(-c3ccc(F)c4sc(N)c(C#N)c34)c(F)c3nc(OC[C@@]45CCCN4C[C@H](F)C5)nc(c23)N1 [Compound 775, 2-amino-4-((5R)-8-chloro-10-fluoro-2-(((2R,7aS)-2-fluorotetrahydro-1H-pyrrolizin-7a(5H)-yl)methoxy)-5-((S)-1-hydroxyethyl)-5,6-dihydro-4H-[1,4]oxazepino[5,6,7-de]quinazolin-9-yl)-7-fluorobenzo[b]thiophene-3-carbonitrile]",< 100 nM,< 100 nM,< 5000 nM,< 100 nM,< 100 nM,< 500 nM
"N#Cc1c(N)sc2c(F)ccc(-c3c(Cl)c4c5c(nc(OC[C@@]67CCCN6C[C@H](F)C7)nc5c3F)N(C3CCCCC(O)C3)CCO4)c12 (stereo partly drawn) [Compound 795, 2-amino-4-(8-chloro-10-fluoro-2-(((2R,7aS)-2-fluorotetrahydro-1H-pyrrolizin-7a(5H)-yl)methoxy)-4-(3-hydroxycycloheptyl)-5,6-dihydro-4H-[1,4]oxazepino[5,6,7-de]quinazolin-9-yl)-7-fluorobenzo[b]thiophene-3-carbonitrile]",< 100 nM,< 100 nM,< 5000 nM,< 100 nM,< 100 nM,< 500 nM
"CC(C)(O)[C@H]1COc2c(Cl)c(-c3ccc(F)c4sc(N)c(C#N)c34)c(F)c3nc(OC[C@@]45CCCN4C[C@H](F)C5)nc(c23)N1 [Compound 815, 2-amino-4-((5R)-8-chloro-10-fluoro-2-(((2R,7aS)-2-fluorotetrahydro-1H-pyrrolizin-7a(5H)-yl)methoxy)-5-(2-hydroxypropan-2-yl)-5,6-dihydro-4H-[1,4]oxazepino[5,6,7-de]quinazolin-9-yl)-7-fluorobenzo[b]thiophene-3-carbonitrile]",< 100 nM,< 100 nM,< 5000 nM,< 100 nM,< 100 nM,< 500 nM
"N#Cc1c(N)sc2c(F)ccc(-c3c(Cl)c4c5c(nc(OC[C@@]67CCCN6C[C@H](F)C7)nc5c3F)N(CC3CC3C#N)[C@@H](C3(O)CC3)CO4)c12 (stereo partly drawn) [Compound 876, 2-amino-4-((5R)-8-chloro-4-((2-cyanocyclopropyl)methyl)-10-fluoro-2-(((2R,7aS)-2-fluorotetrahydro-1H-pyrrolizin-7a(5H)-yl)methoxy)-5-(1-hydroxycyclopropyl)-5,6-dihydro-4H-[1,4]oxazepino[5,6,7-de]quinazolin-9-yl)-7-fluorobenzo[b]thiophene-3-carbonitrile]",< 100 nM,< 100 nM,< 5000 nM,< 100 nM,< 100 nM,< 500 nM
"CN(C)CCN1c2nc(OC[C@@]34CCCN3C[C@H](F)C4)nc3c(F)c(-c4ccc(F)c5sc(N)c(C#N)c45)c(Cl)c(c23)OCC1CC#N (stereo partly drawn) [Compound 885, 2-amino-4-(8-chloro-5-(cyanomethyl)-4-(2-(dimethylamino)ethyl)-10-fluoro-2-(((2R,7aS)-2-fluorotetrahydro-1H-pyrrolizin-7a(5H)-yl)methoxy)-5,6-dihydro-4H-[1,4]oxazepino[5,6,7-de]quinazolin-9-yl)-7-fluorobenzo[b]thiophene-3-carbonitrile]",< 100 nM,< 100 nM,< 5000 nM,< 100 nM,< 100 nM,< 500 nM
"CN(C)CCCN1c2nc(OC[C@@]34CCCN3C[C@H](F)C4)nc3c(F)c(-c4ccc(F)c5sc(N)c(C#N)c45)c(Cl)c(c23)OCC1CC#N (stereo partly drawn) [Compound 896, 2-amino-4-(8-chloro-5-(cyanomethyl)-4-(3-(dimethylamino)propyl)-10-fluoro-2-(((2R,7aS)-2-fluorotetrahydro-1H-pyrrolizin-7a(5H)-yl)methoxy)-5,6-dihydro-4H-[1,4]oxazepino[5,6,7-de]quinazolin-9-yl)-7-fluorobenzo[b]thiophene-3-carbonitrile]",< 100 nM,< 100 nM,< 5000 nM,< 100 nM,< 100 nM,< 500 nM
"C[C@H](O)[C@H]1[C@@H](C)Oc2c(Cl)c(-c3ccc(F)c4sc(N)c(C#N)c34)c(F)c3nc(OC[C@@]45CCCN4C[C@H](F)C5)nc(c23)N1CC(F)F [Compound 911, 2-amino-4-((5S,6R)-8-chloro-4-(2,2-difluoroethyl)-10-fluoro-2-(((2R,7aS)-2-fluorotetrahydro-1H-pyrrolizin-7a(5H)-yl)methoxy)-5-((S)-1-hydroxyethyl)-6-methyl-5,6-dihydro-4H-[1,4]oxazepino[5,6,7-de]quinazolin-9-yl)-7-fluorobenzo[b]thiophene-3-carbonitrile]",< 100 nM,< 100 nM,< 5000 nM,< 100 nM,< 100 nM,< 500 nM
"N#Cc1c(N)sc2c(F)ccc(-c3c(Cl)c4c5c(nc(OC[C@@]67CCCN6C[C@H](F)C7)nc5c3F)N(CC(F)F)[C@@H](C(O)C(F)(F)F)CO4)c12 (stereo partly drawn) [Compound 919, 2-amino-4-((5R)-8-chloro-4-(2,2-difluoroethyl)-10-fluoro-2-(((2R,7aS)-2-fluorotetrahydro-1H-pyrrolizin-7a(5H)-yl)methoxy)-5-(2,2,2-trifluoro-1-hydroxyethyl)-5,6-dihydro-4H-[1,4]oxazepino[5,6,7-de]quinazolin-9-yl)-7-fluorobenzo[b]thiophene-3-carbonitrile]",< 100 nM,< 100 nM,< 5000 nM,< 100 nM,< 100 nM,< 500 nM
